Laboratory results from ChEMBL document CHEMBL3822396 (J Med Chem, 2016).
Values belong to the compound of their own block, whether it stands above or below them. Activity calls are given as the source filed them. The rule behind the calls is not given here.

How the values were obtained:
[1] = Permeability of the compound; assay type: ADME; settings: not told; read-out: permeability
[2] = AUC in Sprague-Dawley rat at 2 mg/kg, po administered through cassette dosing by LC-MS/MS analysis; assay type: ADME, organism-based; settings: in vivo
[3] = Cmax in Sprague-Dawley rat at 2 mg/kg, po administered through cassette dosing as by LC-MS/MS analysis; assay type: ADME, organism-based; set-up: dose 2 mg/kg, route oral; settings: in vivo
[4] = molecular target: Mitogen-activated protein kinase 14 (Homo sapiens, UniProt Q16539)
Sequence of Mitogen-activated protein kinase 14 (Q16539 whole entry): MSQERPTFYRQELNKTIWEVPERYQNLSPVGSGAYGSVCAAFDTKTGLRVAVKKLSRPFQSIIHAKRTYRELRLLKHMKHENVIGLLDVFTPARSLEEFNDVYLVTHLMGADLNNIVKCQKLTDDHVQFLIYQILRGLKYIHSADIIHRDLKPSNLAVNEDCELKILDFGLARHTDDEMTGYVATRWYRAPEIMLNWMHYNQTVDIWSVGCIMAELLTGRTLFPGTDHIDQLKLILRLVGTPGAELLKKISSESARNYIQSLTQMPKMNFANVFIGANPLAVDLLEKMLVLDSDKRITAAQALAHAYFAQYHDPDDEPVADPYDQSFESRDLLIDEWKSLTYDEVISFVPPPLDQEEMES

[5] = molecular target: Vascular endothelial growth factor receptor 2 (Homo sapiens, UniProt P35968)
Sequence of Vascular endothelial growth factor receptor 2 (P35968 whole entry): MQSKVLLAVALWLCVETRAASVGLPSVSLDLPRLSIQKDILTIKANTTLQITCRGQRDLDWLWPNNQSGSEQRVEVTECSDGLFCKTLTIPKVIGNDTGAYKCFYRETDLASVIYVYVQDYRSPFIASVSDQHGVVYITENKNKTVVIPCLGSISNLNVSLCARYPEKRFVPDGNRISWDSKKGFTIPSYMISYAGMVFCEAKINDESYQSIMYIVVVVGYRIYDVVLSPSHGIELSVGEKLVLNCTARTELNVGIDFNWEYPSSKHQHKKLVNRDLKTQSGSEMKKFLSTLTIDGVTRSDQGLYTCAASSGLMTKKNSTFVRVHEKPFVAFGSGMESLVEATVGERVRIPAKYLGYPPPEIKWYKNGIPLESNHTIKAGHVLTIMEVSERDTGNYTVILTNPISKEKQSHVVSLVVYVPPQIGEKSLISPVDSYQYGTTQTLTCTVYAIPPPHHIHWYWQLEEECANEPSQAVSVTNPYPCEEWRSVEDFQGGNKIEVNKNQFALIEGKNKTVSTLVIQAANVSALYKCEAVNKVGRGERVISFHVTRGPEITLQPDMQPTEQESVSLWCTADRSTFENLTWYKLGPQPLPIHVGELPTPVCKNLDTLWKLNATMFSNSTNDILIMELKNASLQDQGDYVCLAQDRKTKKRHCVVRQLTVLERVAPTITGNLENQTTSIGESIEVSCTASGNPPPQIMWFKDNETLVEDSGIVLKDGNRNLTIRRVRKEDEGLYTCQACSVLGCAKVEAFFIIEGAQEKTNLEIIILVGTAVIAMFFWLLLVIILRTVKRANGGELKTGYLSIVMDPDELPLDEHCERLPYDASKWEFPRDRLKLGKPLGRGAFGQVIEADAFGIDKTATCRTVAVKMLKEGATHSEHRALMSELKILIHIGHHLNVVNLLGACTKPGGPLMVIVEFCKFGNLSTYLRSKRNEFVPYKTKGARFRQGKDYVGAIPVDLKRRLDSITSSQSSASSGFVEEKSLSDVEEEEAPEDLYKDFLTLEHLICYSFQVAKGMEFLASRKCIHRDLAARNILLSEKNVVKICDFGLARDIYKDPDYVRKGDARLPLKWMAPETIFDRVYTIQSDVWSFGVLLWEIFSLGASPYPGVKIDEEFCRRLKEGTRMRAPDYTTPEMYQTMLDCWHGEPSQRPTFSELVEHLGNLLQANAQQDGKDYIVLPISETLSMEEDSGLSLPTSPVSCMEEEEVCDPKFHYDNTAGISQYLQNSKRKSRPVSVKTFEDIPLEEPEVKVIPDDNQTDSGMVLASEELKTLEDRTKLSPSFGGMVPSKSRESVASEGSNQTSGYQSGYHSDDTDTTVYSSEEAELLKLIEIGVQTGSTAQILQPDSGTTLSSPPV

[6] = system: Intestinal mucosa; assay: Inhibition of IL6 production in intestinal mucosa derived from ulcerative colitis patient at 1 uM measured after 24 hrs by sandwich ELISA; assay type: functional, tissue-based; settings: Homo sapiens
[7] = system: Intestinal mucosa; assay: Inhibition of TNFalpha production in intestinal mucosa derived from ulcerative colitis patient at 1 uM measured after 24 hrs by sandwich ELISA; assay type: functional, tissue-based; settings: Homo sapiens
[8] = system: Intestinal mucosa; assay: Inhibition of TNFalpha production in intestinal mucosa derived from Crohn's disease patient at 1 uM measured after 24 hrs by sandwich ELISA; assay type: functional, tissue-based; settings: Homo sapiens
[9] = system: Intestinal mucosa; assay: Inhibition of IL6 production in intestinal mucosa derived from Crohn's disease patient at 1 uM measured after 24 hrs by sandwich ELISA; assay type: functional, tissue-based; settings: Homo sapiens

Papp [1]: 23 ×10⁻⁶ cm/s
Compound: Cc1ccc(O)cc1Nc1ccnc2ccc(-c3cccnc3)cc12

Papp [1]: 49 ×10⁻⁶ cm/s
Compound: Cc1ccc(O)cc1Nc1ccnc2ccc(C(F)(F)F)cc12

AUC [2]: 1700 ng·h/mL
Cmax [3]: 500 ng/mL
Compound: CS(=O)(=O)c1ccc2nccc(Nc3n[nH]c4ccc(F)cc34)c2c1

Papp [1]: 25 ×10⁻⁶ cm/s
Compound: Cc1ccc(O)cc1Nc1ccnc2ccccc12

The next lines start with the compound.

Compound: CC(C)S(=O)(=O)c1ccc2nccc(Nc3n[nH]c4ccc(F)cc34)c2c1
AUC [2]: 1100 ng·h/mL
Cmax [3]: 370 ng/mL
IC50 [4]: > 5 µM
IC50 [5]: > 5 µM

Compound: COc1ccc2nccc(Nc3cc(O)ccc3C)c2c1
Papp [1]: 23 ×10⁻⁶ cm/s

Compound: Cc1ccc(O)cc1Nc1ccnc2ccc(C(=O)NCC3CCOCC3)cc12
Papp [1]: 1.5 ×10⁻⁶ cm/s
IC50 [4]: > 5 µM
IC50 [5]: > 5 µM

Compound: Cc1ccc(O)cc1Nc1ccnc2ccc(S(C)(=O)=O)cc12 [GW559768X]
Papp [1]: 7.9 ×10⁻⁶ cm/s

Compound: C[C@]12C=CC(=O)C=C1CC[C@@H]1[C@@H]2[C@@H](O)C[C@@]2(C)[C@H]1CC[C@]2(O)C(=O)CO
inhibition [6]: Active
inhibition [7]: Active
inhibition [8]: Active
inhibition [9]: Active
